Measured values published in patent US20160375006A1, “USES OF PARALOG-SELECTIVE INHIBITORS OF GSK3 KINASES” (priority 2012, published 2016).

Assays:
AMPKα2/β1/γ1 = AMPKα2/β1/γ1 (Homo sapiens, UniProt P54646)
Method: (§1) This was completed utilizing one of two assays depending on the kinase being examined.
(§2) A solution of termination buffer (QuickScout Screening assist MSA; Carna Biosciences) (60 μL) was added to each well. The entire reaction mixture was then applied to a LabChip3000 system (Caliper Life Science) and the product and substrate peptide peaks were separated and quantified.
The assay utilized was identical to that of the single point inhibitory activity determination (MSA) but run in dose response.

PKD2 = PKD2 (Homo sapiens, UniProt Q9BZL6)
Method: as §1
(§3) A solution of IMAP binding reagent (IMAP Screening Express kit; Molecular Devices) (60 μL) was added to each well and incubated for 30 minutes.
as §2
(§4) The assay utilized was identical to that of the single point inhibitory activity determination (MSA) but run in dose response. […] A solution of termination buffer (QuickScout Screening assist MSA; Carna Biosciences) (60 μL) was added to each well. The entire reaction mixture was then applied to a LabChip3000 system (Caliper Life Science) and the product and substrate peptide peaks were separated and quantified.

WNK3 = WNK3 (Homo sapiens, UniProt Q9BYP7)
Method: as §1, §3, §2, §4

PYK2 = PYK2 (Homo sapiens, UniProt Q14289)
Method: as §1, §3, §2

YES(T348I) = YES(T348I) (Homo sapiens, UniProt P07947, T348I)
Method: as §1, §3, §2, §4

DCAMKL2 = DCAMKL2 (Homo sapiens, UniProt Q8N568)
Method: as §1, §3, §2, §4

BMX = BMX (Homo sapiens, UniProt P51813)
Method: as §1, §3, §2, §4

EML4-ALK = EML4-ALK (Homo sapiens, UniProt Q9UM73)
Method: as §1, §3, §2, §4

MAP2K4_Cascade = MAP2K4_Cascade (Homo sapiens, UniProt P45985)
Method: as §1, §3, §2, §4

WNK2 = WNK2 (Homo sapiens, UniProt Q9Y3S1)
Method: as §1, §3, §2, §4

PBK = PBK (Homo sapiens, UniProt Q96KB5)
Chain of PBK (Q96KB5 whole entry): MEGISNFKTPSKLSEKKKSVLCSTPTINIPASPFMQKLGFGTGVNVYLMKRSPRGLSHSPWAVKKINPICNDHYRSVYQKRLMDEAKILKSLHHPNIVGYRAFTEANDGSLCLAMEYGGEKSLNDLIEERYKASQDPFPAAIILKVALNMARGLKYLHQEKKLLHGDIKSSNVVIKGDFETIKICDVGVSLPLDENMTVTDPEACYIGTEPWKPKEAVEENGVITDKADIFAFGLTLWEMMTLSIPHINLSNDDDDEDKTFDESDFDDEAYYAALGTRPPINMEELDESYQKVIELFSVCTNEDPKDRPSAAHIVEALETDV
Method: as §1, §3, §2, §4

MAP2K6_Cascade = MAP2K6_Cascade (Homo sapiens, UniProt P52564)
Method: as §1, §3, §2, §4

MAPKAPK2 = MAPKAPK2 (Homo sapiens, UniProt P49137)
Method: as §1, §3, §2, §4

TSSK3 = TSSK3 (Homo sapiens, UniProt Q96PN8)
Method: as §1, §3, §2, §4

EGFR(d746-750/T790M) = EGFR(d746-750/T790M) (Homo sapiens, UniProt P00533, DEL746-750/T790M)
Chain of EGFR(d746-750/T790M) (P00533 with tags, fused parts or gaps DEL746-750/T790M limits assumed): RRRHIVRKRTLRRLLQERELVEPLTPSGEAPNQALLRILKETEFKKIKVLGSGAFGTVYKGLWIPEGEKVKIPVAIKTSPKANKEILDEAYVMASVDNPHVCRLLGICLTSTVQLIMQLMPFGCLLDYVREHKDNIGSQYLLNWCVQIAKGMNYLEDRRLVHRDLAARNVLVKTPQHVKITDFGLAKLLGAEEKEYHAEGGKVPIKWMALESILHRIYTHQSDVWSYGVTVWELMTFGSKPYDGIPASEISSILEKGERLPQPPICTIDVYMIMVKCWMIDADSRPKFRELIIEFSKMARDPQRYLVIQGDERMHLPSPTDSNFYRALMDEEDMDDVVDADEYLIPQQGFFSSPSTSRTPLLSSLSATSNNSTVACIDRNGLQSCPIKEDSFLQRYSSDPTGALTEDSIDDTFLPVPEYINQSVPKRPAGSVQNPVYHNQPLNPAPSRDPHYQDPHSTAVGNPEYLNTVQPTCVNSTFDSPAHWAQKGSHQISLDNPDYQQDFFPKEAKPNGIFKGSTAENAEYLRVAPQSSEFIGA
Method: as §1, §3, §2, §4

FRK = FRK (Homo sapiens, UniProt P42685)
Method: as §1, §3, §2, §4

NEK2 = NEK2 (Homo sapiens, UniProt P51955)
Method: as §1, §3, §2, §4

PKCζ = PKCζ (Homo sapiens, UniProt Q05513)
Method: as §1, §3, §2, §4

PDGFRα(V561D) = PDGFRα(V561D) (Homo sapiens, UniProt P16234, V561D)
Method: as §1, §3, §2, §4

MINK = MINK (Homo sapiens, UniProt Q8N4C8)
Method: as §1, §3, §2, §4

BRAF_Cascade = BRAF_Cascade (Homo sapiens, UniProt P15056)
Chain of BRAF_Cascade (P15056 whole entry): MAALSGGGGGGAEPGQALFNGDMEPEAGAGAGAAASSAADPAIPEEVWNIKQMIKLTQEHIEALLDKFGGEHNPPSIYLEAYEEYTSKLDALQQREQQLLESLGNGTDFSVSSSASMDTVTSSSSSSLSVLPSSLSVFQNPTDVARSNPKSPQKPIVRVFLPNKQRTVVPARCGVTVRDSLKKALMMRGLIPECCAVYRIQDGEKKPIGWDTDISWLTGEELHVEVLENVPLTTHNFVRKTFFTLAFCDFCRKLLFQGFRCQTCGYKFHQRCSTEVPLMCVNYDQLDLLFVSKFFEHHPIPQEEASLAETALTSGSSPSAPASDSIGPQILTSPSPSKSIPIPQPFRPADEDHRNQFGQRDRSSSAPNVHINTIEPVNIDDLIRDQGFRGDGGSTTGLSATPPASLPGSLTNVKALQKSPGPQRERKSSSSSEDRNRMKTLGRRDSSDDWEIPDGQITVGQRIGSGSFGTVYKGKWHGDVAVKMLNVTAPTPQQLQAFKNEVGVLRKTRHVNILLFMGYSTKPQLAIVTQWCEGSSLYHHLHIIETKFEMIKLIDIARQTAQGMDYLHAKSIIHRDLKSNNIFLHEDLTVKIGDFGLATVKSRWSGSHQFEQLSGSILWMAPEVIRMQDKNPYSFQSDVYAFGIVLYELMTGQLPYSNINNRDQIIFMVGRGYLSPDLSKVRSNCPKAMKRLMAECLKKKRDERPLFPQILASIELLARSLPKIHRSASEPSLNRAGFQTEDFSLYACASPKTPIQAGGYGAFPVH
Method: as §1, §3, §2, §4

CK1γ1 = CK1γ1 (Homo sapiens, UniProt Q9HCP0)
Method: as §1, §3, §2, §4

BRSK2 = BRSK2 (Homo sapiens, UniProt Q8IWQ3)
Chain of BRSK2 (Q8IWQ3 whole entry): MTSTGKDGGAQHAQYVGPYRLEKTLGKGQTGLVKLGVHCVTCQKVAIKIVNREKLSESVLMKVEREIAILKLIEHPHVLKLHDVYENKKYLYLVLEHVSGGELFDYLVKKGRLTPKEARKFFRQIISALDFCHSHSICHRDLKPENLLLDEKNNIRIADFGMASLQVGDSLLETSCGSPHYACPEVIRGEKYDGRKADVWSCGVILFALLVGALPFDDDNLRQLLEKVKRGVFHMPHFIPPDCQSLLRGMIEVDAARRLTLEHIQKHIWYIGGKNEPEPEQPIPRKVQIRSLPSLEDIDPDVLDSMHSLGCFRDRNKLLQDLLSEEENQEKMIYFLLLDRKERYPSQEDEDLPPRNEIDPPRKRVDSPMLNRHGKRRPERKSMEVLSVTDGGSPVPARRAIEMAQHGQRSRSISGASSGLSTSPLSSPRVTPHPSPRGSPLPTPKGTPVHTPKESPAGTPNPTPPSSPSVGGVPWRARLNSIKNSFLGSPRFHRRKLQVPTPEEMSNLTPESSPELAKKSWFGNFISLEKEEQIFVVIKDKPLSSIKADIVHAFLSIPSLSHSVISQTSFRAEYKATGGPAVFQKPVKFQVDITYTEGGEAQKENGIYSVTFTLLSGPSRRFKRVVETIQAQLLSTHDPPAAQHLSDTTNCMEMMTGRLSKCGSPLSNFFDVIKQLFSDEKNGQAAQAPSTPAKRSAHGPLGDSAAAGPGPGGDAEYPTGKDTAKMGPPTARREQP
Method: as §1, §3, §2, §4

MGC42105 = MGC42105 (Homo sapiens, UniProt Q8IY84)
Method: as §1, §3, §2, §4

p70S6Kβ = p70S6Kβ (Homo sapiens, UniProt Q9UBS0)
Chain of p70S6Kβ (Q9UBS0 whole entry): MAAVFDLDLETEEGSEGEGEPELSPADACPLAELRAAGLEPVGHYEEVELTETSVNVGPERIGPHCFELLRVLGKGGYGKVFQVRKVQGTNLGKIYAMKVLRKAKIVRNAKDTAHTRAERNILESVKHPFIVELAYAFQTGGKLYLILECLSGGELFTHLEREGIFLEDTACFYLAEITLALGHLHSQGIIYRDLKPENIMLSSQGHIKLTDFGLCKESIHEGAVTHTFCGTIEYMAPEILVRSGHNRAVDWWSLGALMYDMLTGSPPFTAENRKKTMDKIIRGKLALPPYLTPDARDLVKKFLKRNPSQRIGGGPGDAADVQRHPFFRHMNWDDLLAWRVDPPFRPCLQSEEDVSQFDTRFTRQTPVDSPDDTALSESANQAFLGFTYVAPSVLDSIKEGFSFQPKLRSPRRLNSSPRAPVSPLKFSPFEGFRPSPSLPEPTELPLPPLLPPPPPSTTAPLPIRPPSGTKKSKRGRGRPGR
Method: as §1, §3, §2, §4

SPHK1 = SPHK1 (Homo sapiens, UniProt Q9NYA1)
Chain of SPHK1 (Q9NYA1 whole entry): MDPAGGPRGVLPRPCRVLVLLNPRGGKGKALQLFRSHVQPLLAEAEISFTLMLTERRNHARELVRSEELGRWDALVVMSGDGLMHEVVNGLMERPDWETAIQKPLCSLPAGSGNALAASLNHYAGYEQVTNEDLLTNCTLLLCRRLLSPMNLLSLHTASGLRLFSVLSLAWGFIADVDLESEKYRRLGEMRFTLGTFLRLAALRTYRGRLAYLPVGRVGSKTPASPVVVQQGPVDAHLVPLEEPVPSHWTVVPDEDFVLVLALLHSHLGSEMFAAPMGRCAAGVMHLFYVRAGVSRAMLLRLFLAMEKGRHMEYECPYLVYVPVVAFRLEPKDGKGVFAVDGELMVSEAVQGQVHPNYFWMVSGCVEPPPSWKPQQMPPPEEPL
Method: as §1, §3, §2, §4

DYRK2 = DYRK2 (Homo sapiens, UniProt Q92630)
Method: as §1, §3, §2, §4

PKACγ = PKACγ (Homo sapiens, UniProt P22612)
Chain of PKACγ (P22612 whole entry): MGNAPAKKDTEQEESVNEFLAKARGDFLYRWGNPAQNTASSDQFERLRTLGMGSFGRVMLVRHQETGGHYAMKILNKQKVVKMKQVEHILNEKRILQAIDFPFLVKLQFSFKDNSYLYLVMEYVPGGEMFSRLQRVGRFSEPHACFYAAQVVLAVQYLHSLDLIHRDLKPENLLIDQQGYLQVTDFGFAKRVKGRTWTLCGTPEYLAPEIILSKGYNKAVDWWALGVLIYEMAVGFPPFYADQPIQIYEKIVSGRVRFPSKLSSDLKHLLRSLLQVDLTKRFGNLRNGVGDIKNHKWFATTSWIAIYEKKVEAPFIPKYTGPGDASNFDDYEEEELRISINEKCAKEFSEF
Method: as §1, §3, §2, §4

PDHK4 = PDHK4 (Homo sapiens, UniProt Q16654)
Chain of PDHK4 (Q16654 whole entry): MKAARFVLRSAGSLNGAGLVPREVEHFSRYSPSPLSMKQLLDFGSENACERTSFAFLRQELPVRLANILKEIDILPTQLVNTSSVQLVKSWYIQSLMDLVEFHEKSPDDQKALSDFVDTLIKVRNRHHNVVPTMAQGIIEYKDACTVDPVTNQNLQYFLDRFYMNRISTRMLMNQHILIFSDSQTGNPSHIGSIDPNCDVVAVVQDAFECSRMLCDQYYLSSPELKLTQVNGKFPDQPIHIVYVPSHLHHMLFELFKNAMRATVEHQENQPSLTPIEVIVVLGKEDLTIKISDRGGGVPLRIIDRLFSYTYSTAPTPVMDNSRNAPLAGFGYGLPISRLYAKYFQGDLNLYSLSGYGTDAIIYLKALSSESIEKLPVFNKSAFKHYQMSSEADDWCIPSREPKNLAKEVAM
Method: as §1, §3, §2, §4

LTK = LTK (Homo sapiens, UniProt P29376)
Method: as §1, §3, §2, §4

LYNb = LYNb (Homo sapiens, UniProt P07948)
Method: as §1, §3, §2, §4

FGR = FGR (Homo sapiens, UniProt P09769)
Method: as §1, §3, §2, §4

ALK(F1174L) = ALK(F1174L) (Homo sapiens, UniProt Q9UM73, F1174L)
Method: as §1, §3, §2

MNK1 = MNK1 (Homo sapiens, UniProt Q9BUB5)
Method: as §1, §3, §2, §4

RET(S891A) = RET(S891A) (Homo sapiens, UniProt P07949, S891A)
Method: as §1, §3, §2, §4

PKCθ = PKCθ (Homo sapiens, UniProt Q04759)
Method: as §1, §3, §2

NDR2 = NDR2 (Homo sapiens, UniProt Q9Y2H1)
Method: as §1, §3, §2, §4

FGFR3(K650E) = FGFR3(K650E) (Homo sapiens, UniProt P22607, K650E)
Method: as §1, §3, §2, §4

CGK2 = CGK2 (Homo sapiens, UniProt Q13237)
Method: as §1, §3, §2, §4

Chain of PYK2 (Q14289 whole entry): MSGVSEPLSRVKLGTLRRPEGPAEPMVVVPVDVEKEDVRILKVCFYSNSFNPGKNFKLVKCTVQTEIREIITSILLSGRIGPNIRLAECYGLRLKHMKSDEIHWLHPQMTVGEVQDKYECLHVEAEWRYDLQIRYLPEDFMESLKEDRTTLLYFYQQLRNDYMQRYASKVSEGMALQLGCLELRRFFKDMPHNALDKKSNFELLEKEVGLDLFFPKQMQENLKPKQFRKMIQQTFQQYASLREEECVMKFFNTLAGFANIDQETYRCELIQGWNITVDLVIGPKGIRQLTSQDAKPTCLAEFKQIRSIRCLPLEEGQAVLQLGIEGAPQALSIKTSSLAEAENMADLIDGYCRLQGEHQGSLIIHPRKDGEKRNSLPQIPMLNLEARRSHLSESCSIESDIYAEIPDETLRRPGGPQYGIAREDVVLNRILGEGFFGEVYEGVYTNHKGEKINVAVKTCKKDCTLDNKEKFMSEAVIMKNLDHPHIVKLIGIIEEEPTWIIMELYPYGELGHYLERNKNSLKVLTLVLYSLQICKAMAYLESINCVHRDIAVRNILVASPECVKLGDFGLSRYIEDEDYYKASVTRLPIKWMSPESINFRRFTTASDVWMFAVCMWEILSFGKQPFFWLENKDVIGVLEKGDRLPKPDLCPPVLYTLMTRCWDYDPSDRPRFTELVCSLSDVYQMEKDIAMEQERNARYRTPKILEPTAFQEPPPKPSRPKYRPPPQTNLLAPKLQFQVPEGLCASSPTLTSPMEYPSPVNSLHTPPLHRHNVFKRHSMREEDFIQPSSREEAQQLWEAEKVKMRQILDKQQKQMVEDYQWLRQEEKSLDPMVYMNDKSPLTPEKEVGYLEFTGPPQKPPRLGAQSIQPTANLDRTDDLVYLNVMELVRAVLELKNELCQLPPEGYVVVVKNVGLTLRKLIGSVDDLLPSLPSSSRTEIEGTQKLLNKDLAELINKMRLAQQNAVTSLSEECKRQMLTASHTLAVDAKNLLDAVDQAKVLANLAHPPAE
Method for MAP3K2_Cascade: as §1, §3, §2, §4

## CC[C@@]1(c2ccccc2)C2=C(CC(C)(C)CC2=O)Nc2n[nH]cc21 [BRD0705]
AMPKα2/β1/γ1
  % Inhibition at 10 μM: 5.1%
PKD2
  % Inhibition at 10 μM: −22.1%
WNK3
  % Inhibition at 10 μM: −3.7%
PYK2
  % Inhibition at 10 μM: 3.5%
YES(T348I)
  % Inhibition at 10 μM: 3.3%
DCAMKL2
  % Inhibition at 10 μM: −0.5%
BMX
  % Inhibition at 10 μM: 2.7%
EML4-ALK
  % Inhibition at 10 μM: 3.4%
MAP2K4_Cascade
  % Inhibition at 10 μM: −3.0%
WNK2
  % Inhibition at 10 μM: −5.0%
PBK
  % Inhibition at 10 μM: −8.0%
MAP2K6_Cascade
  % Inhibition at 10 μM: 4.2%
MAP3K2_Cascade
  % Inhibition at 10 μM: 1.0%
MAPKAPK2
  % Inhibition at 10 μM: −22.4%
TSSK3
  % Inhibition at 10 μM: 3.5%
EGFR(d746-750/T790M)
  % Inhibition at 10 μM: −3.5%
FRK
  % Inhibition at 10 μM: 0.9%
NEK2
  % Inhibition at 10 μM: −4.5%
PKCζ
  % Inhibition at 10 μM: −1.0%
PDGFRα(V561D)
  % Inhibition at 10 μM: −3.7%
MINK
  % Inhibition at 10 μM: 2.4%
BRAF_Cascade
  % Inhibition at 10 μM: 7.8%
CK1γ1
  % Inhibition at 10 μM: −3.4%
BRSK2
  % Inhibition at 10 μM: 1.8%
MGC42105
  % Inhibition at 10 μM: −9.9%
p70S6Kβ
  % Inhibition at 10 μM: −2.1%
SPHK1
  % Inhibition at 10 μM: −20.5%
DYRK2
  % Inhibition at 10 μM: −3.0%
PKACγ
  % Inhibition at 10 μM: −3.6%
PDHK4
  % Inhibition at 10 μM: 11.0%
LTK
  % Inhibition at 10 μM: −3.6%
LYNb
  % Inhibition at 10 μM: 2.2%
FGR
  % Inhibition at 10 μM: −3.4%
ALK(F1174L)
  % Inhibition at 10 μM: 1.7%
MNK1
  % Inhibition at 10 μM: −5.2%
RET(S891A)
  % Inhibition at 10 μM: −3.1%
PKCθ
  % Inhibition at 10 μM: −12.0%
NDR2
  % Inhibition at 10 μM: −9.9%
FGFR3(K650E)
  % Inhibition at 10 μM: −15.5%
CGK2
  % Inhibition at 10 μM: −7.3%

## CC(C)(C)Cc1[nH]nc2c1[C@](C)(c1ccccc1)C1=C(CC(C)(C)CC1=O)N2 [BRD3731]
AMPKα2/β1/γ1; 10 μM
  % Inhibition 10 μM: 16.7%
PKD2; 10 μM
  % Inhibition 10 μM: 17.2%
WNK3; 10 μM
  % Inhibition 10 μM: 2.1%
PYK2; 10 μM
  % Inhibition 10 μM: 5.3%
YES(T348I); 10 μM
  % Inhibition 10 μM: −2.3%
DCAMKL2; 10 μM
  % Inhibition 10 μM: −1.3%
BMX; 10 μM
  % Inhibition 10 μM: −3.8%
EML4-ALK; 10 μM
  % Inhibition 10 μM: −7.2%
MAP2K4_Cascade; 10 μM
  % Inhibition 10 μM: 7.6%
WNK2; 10 μM
  % Inhibition 10 μM: 1.6%
PBK; 10 μM
  % Inhibition 10 μM: 0.6%
MAP2K6_Cascade; 10 μM
  % Inhibition 10 μM: 3.3%
MAP3K2_Cascade; 10 μM
  % Inhibition 10 μM: −0.7%
MAPKAPK2; 10 μM
  % Inhibition 10 μM: 22.4%
TSSK3; 10 μM
  % Inhibition 10 μM: 33.6%
EGFR(d746-750/T790M); 10 μM
  % Inhibition 10 μM: 3.7%
FRK; 10 μM
  % Inhibition 10 μM: 3.2%
NEK2; 10 μM
  % Inhibition 10 μM: −2.1%
PKCζ; 10 μM
  % Inhibition 10 μM: 5.0%
PDGFRα(V561D); 10 μM
  % Inhibition 10 μM: 6.6%
MINK; 10 μM
  % Inhibition 10 μM: 2.2%
BRAF_Cascade; 10 μM
  % Inhibition 10 μM: 8.9%
CK1γ1; 10 μM
  % Inhibition 10 μM: 1.2%
BRSK2; 10 μM
  % Inhibition 10 μM: −2.9%
MGC42105; 10 μM
  % Inhibition 10 μM: −2.4%
p70S6Kβ; 10 μM
  % Inhibition 10 μM: 12.6%
SPHK1; 10 μM
  % Inhibition 10 μM: 3.4%
DYRK2; 10 μM
  % Inhibition 10 μM: 4.1%
PKACγ; 10 μM
  % Inhibition 10 μM: 6.5%
PDHK4; 10 μM
  % Inhibition 10 μM: 24.2%
LTK; 10 μM
  % Inhibition 10 μM: −3.5%
LYNb; 10 μM
  % Inhibition 10 μM: 2.9%
FGR; 10 μM
  % Inhibition 10 μM: 12.0%
ALK(F1174L); 10 μM
  % Inhibition 10 μM: 0.2%
MNK1; 10 μM
  % Inhibition 10 μM: −4.1%
RET(S891A); 10 μM
  % Inhibition 10 μM: −0.6%
PKCθ; 10 μM
  % Inhibition 10 μM: 12.1%
NDR2; 10 μM
  % Inhibition 10 μM: −3.2%
FGFR3(K650E); 10 μM
  % Inhibition 10 μM: 0.7%
CGK2; 10 μM
  % Inhibition 10 μM: 4.4%
